This is an account of results in US4565816A, “Piperazine derivatives and pharmaceutical composition containing them” (Sandoz Ltd., priority 1982, dated 1986).

Each structure is given as a SMILES string.

Assay [1] deals with spontaneously beating guinea-pig atria. The experiment in a line: decrease of heart rate of spontaneously beating guinea-pig atria in vitro. Conditions: Cavia porcellus, read-out: EC25 (concentration decreasing the rate of the spontaneously beating atria by 25%). The method, then: For example, in guinea-pig atria in vitro [method of R. P. Hof and G. Scholtysik, J. of Cardiovascular Pharmacology 5, 176-183 (1983)] a decrease of the heart rate of spontaneously beating atria is observed at a bath concentration of from about 1 μM to about 100 μM. The concentration decreasing the rate of the spontaneously beating atria by 25% (EC25 values) for some compounds of the present invention and the standard Alinidin are given in the following Table: […]

The next assay relates to mice. Nature of the assay: inhibition of locomotion in mice. Type of assay: in vivo, mouse (male, OF-1). The conditions noted are these: Mus musculus, po, 1 hour after administration, minimum dose at which significant inhibition was observed, read-out: Locomotor inhibition EDmin. As to the method:
In particular, the compounds of formulae I and VII are useful as neuroleptic agents in the treatment of e.g. psychotic disorders such as schizophrenia, as indicated in standard tests, e.g. by an inhibition of locomotion in mice. In this test groups of 3 male mice (18-24 g, OF-1, Sandoz Basle) received 3.2, 10, 32, 100 and […]. of the test drug. 1 hour after drug administration the mice were observed individually and their locomotion compared with that of control. The locomotion of the animals was observed and the EDmin (the minimum dose at which significant inhibition was observed) determined.

In assay [2] the target is T1, ^3 H-Spiperone binding sites (Bos taurus, UniProt P20288).
T1 construct: fresh calf brain striatal tissue was homogenized; from tissue; host or cells: calf brain striatum, membranes
T1 sequence (P20288 whole entry): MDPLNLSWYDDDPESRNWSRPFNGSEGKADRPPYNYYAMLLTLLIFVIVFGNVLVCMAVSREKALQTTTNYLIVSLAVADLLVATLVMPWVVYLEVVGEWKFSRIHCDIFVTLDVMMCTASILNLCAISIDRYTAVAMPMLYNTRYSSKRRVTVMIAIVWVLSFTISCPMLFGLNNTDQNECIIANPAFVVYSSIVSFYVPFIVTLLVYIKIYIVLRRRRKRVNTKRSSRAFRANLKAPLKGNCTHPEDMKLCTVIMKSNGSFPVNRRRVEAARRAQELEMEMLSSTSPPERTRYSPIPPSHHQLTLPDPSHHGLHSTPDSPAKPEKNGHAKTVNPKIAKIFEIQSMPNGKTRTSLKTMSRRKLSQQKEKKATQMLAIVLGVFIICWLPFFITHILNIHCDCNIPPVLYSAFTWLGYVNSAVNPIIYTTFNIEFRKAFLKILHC
The experiment in a line: ^3 H-Spiperone binding (calf brain striatal tissue). The conditions noted are these: for IC50: calf brain striatal membranes, 0.1 nM ^3 H-Spiperone, 5×10^-7 M Cinanserin, 40 minutes at room temperature, read-out: Receptor binding IC50 ^3 H-Spiperone; for effect in the ^3 H-Spiperone binding test compared with Clozapine: in words, relative to Clozapine. The method, then:
The compounds of formulae I and VII bind further on ^3 H-Spiperone binding sites in the brain [modified method of J. Leysen et al., Biochem. Pharmac. […] The test was performed as follows: fresh calf brain striatal tissue was homogenized in the 25 fold volume of Tris buffer (pH 7.4, 50 mM, 120 mM sodium chloride) and centrifuged. The pellets were suspended in the 22 fold volume of Tris buffer, incubated for 15 minutes at 37° C. and centrifuged. The pellets were suspended in the 300 fold volume of Tris buffer. […] After incubation for 40 minutes at room temperature, the assay mixtures were raidly filtered through Whatman GF/B filter, the filters washed twice with 5 ml of ice cold Tris buffer and scintillation-counted.

In another assay the target is α1-receptors. Nature of the assay: ^3 H-Prazosin binding assay for α1-receptors (calf brain cortex). Conditions: calf brain cortex membranes, 0.3 nM ^3 H-Prazosin, pH 7.7, 40 min room temperature; read-out: IC50, inhibition of specific ^3 H-Prazosin binding. The method, then:
The compounds of formulae I and VII are furthermore useful as anti-hypertensive agents, as indicated in standard tests, for example in the ^3 H-Prazosin binding assay for α1 -receptors [modified method of Greengrass P., et al., Eur. J. Pharmac. 55, 323-326 (1979)]. The test was performed as follows:
Fresh calf brain cortex tissue is homogenized in a 20 fold volume of Tris-HCl buffer (50 mM, pH 7.7), using a Polytron PT 20, and centrifuged at 30'000 xg for 25 min. The pellets are resuspended in a 13 fold volume of the same buffer, incubated for 15 min at 37° C., and recentrifuged at 50'000 xg for 11 min. The pellets of this centrifugation are frozen at -20° C. and resuspended in a 60 fold volume of the same buffer as above before use for the binding experiment. The composition of the assay mixtures (total volume=2 ml) is as follows: 50 mM Tris-HCl pH 7.7, membranes corresponding to 30 mg of original tissue weight, and 0.3 nM ^3 H-Prazosin. The assays for the definition of nonspecific binding additionally contain phentolamine at a concentration of 10 μM. To assess the potency of drugs in inhibiting specific ^3 H-Prazosin binding (difference between total and nonspecific binding), the test compounds are added to give 5 to 9 different concentrations between 1 nM and 10 μM, each in duplicate. After incubation for 40 min at room temperature, the assay mixtures are rapidly filtered through Whatman GF/B filters and washed twice with 5 ml of ice cold Tris buffer. The radioactivity of the filters is estimated by scintillation counting.

The next assay concerns female normotonic rats. The experiment in a line: blood pressure / heart rate in anaesthetized normotonic rats. It is filed as in vivo, rat (female, Sprague-Dawley). Conditions: Rattus norvegicus, iv; urethane-anaesthetized rats, cumulative i.v. doses 3 to 1443 μg/kg, interpolated; read-out: ED75 (dose required to reduce the blood pressure on the heart rate to 75% of pretreatment values). As to the method:
In another test female normotonic rats (200-350 g, Sprague-Dawley, Suddeutsche Tierfarm, Tuttlingen, FRG) were anaesthetized with urethane (1.5-1.75 g/kg i.p. in 2 portions) and a tracheal cannula was inserted. Blood pressure and heart rate were recorded from the carotid artery by conventional methods. Test drug were administered by the jugular or the femoral vein. Body temperature was maintained at 37° C. by means of a temperature regulator (Alfos MK-4) triggered by a thermistor on the animal. After adaptation, increasing doses of the test drug were injected i.v. to give the following cumulative doses: 3, 13, 43, 143, […] and 1443 μg/kg. ED 75% is the dose required to reduce the blood pressure on the heart rate to 75% of pretreatment values. It was obtained through interpolation. The ED75 of the Example 4 compound is 6 μg, of Example 5s compound 3 μg, of Example 8 g 4 μg and of Guanfacine 57 μg.

For orientation: IC50 means the concentration that inhibits the measured activity by half.

With `C=CCN(C1=NCCN1)c1c(Cl)cccc1Cl` [Alinidin, reference compound], in assay [1], the EC25 worked out at 6500 nM.

Regarding `CN1CCN(C2=Nc3cc(Cl)ccc3Nc3ccccc32)CC1` [Clozapine, reference compound], in the assay with mice, the minimal effective dose turned out to be 3.2 mg/kg.

Turning to `O=C(CCCN1CCN(c2ccc3[nH]cnc3n2)CC1)c1ccc(F)cc1` [Example 1, 1-(4-Fluorophenyl)-4-[4-(1H-imidazo[4,5-b]pyridin-5-yl)-1-piperazinyl]-1-butanone], in assay [2], the IC50 is 306 nM and the “effect in the ^3 H-Spiperone binding test compared with Clozapine” value is reported as “stronger effects”. Besides, the minimal effective dose in the assay with mice worked out at 1 mg/kg. Also, the EC25 in assay [1] was 7800 nM.

Take `Cc1nc2ccc(N3CCN(CCCC(=O)c4ccc(F)cc4)CC3)nc2n1C` [Example 3d]: the IC50 at α1-receptors came to 2.2 nM.

As for `CCc1nc2ccc(N3CCN(CCCC(=O)c4ccc(F)cc4)CC3)nc2[nH]1` [Example 3i], in assay [2], the IC50 amounted to 246 nM and the “effect in the ^3 H-Spiperone binding test compared with Clozapine” value is reported as “stronger effects”. In addition, the minimal effective dose with mice was 3.2 mg/kg.

Take `O=C(CCCN1CCN(c2cc3[nH]cnc3cn2)CC1)c1ccc(F)cc1` [Example 3r]: the IC50 in assay [2] worked out at 441 nM. In addition, in the assay with mice, the minimal effective dose was no more than 3.2 mg/kg.

For `CC(=O)Nc1cnc(N2CCN(CCCC(=O)c3ccc(F)cc3)CC2)cc1NC(C)=O` [Example 4, 4-[4-(4,5-Diacetylamino-2-pyridinyl)-1-piperazinyl]-1-(4-fluorophenyl)-1-butanone], the IC50 at α1-receptors is less than 1 nM. Besides, the ED75 with female normotonic rats was 0.006 mg/kg.

On to `CC(=O)Nc1ccc(N2CCN(CCCC(=O)c3ccc(F)cc3)CC2)nc1NC(C)=O` [Example 5c], for which the IC50 in assay [2] was found to be 4600 nM. Besides, the minimal effective dose in the assay on mice worked out at 1 mg/kg.

Consider `CC(=O)Nc1cnc(N2CCN(CCCOc3ccc(F)cc3)CC2)cc1NC(C)=O` [Example 5s], for which, in the assay with female normotonic rats, the ED75 was 0.003 mg/kg.

Regarding `Cc1nc2ccc(N3CCN(CCCC(=O)c4ccc(F)cc4)CC3)nc2nc1C` [Example 7, 4-[4-(2,3-Dimethyl-pyrido[2,3-b]pyrazin-6-yl)-1-piperazinyl]-1-(4-fluorophenyl)-1-butanone], the IC50 in assay [2] was found to be 205 nM. Also, the minimal effective dose in the assay with mice was 10 mg/kg.

Take `Cc1nc2cnc(N3CCN(CCCC(=O)c4ccc(F)cc4)CC3)cc2nc1C` [Example 8c]: in assay [2], the IC50 came to 121 nM. For the same molecule, the minimal effective dose with mice was determined as 10 mg/kg.

For `O=C(CCCN1CCN(c2cc3nccnc3cn2)CC1)c1ccc(F)cc1` [Example 8d], in assay [1], the EC25 is 4000 nM.

With `Fc1ccc(OCCCN2CCN(c3cc4nccnc4cn3)CC2)cc1` [Example 8g], the EC25 in assay [1] worked out at 2150 nM. In the assay on female normotonic rats, the ED75 is 0.004 mg/kg.

As to `N=C(N)NC(=O)Cc1c(Cl)cccc1Cl` [Guanfacine, reference compound], the IC50 at α1-receptors is 3700 nM. For the same molecule, in the assay on female normotonic rats, the ED75 was 0.057 mg/kg.
